Measurements taken from patent US9303012B2, “Pyridine-2-amides useful as CB2 agonists” (Hoffmann-La Roche Inc., priority 2012, dated 2016).

Legend:
human CB1 receptors = human CB1 receptors (Homo sapiens (Human), UniProt P21554); experiment: functional cAMP assay, CHO cells expressing human CB1 receptors; format: cell-based
Description: (§1) CHO cells expressing human CB1 or CB2 receptors are seeded 17-24 hours prior to the experiment 50.000 cells per well in a black 96 well plate with flat clear bottom (Corning Costar #3904) in DMEM (Invitrogen No. 31331), 1×HT supplement, with 10% fetal calf serum and incubated at 5% CO2 and 37° C. in a humidified incubator. The growth medium was exchanged with Krebs Ringer Bicarbonate buffer with 1 mM IBMX and incubated at 30° C. for 30 min. Compounds were added to a final assay volume of 100 μl and incubated for 30 min at 30° C. Using the cAMP-Nano-TRF detection kit the assay (Roche Diagnostics) was stopped by the addition of 50 μl lysis reagent (Tris, NaCl, 1.5% Triton X100, 2.5% NP40, 10% NaN3) and 50 μl detection solutions (20 μM mAb Alexa700-cAMP 1:1, and 48 μM Ruthenium-2-AHA-cAMP) and shaken for 2 h at room temperature. The time-resolved energy transfer is measured by a TRF reader (Evotec Technologies GmbH), equipped with a ND:YAG laser as excitation source. The plate is measured twice with the excitation at 355 nm and at the emission with a delay of 100 ns and a gate of 100 ns, total exposure time 10 s at 730 (bandwidth 30 nm) or 645 nm (bandwidth 75 nm), respectively. The FRET signal is calculated as follows: FRET=T730-Alexa730-P(T645-B645) with P=Ru730-B730/Ru645-B645, where T730 is the test well measured at 730 nM, T645 is the test well measured at 645 nm, B730 and B645 are the buffer controls at 730 nm and 645 nm, respectively. cAMP content is determined from the function of a standard curve spanning from 10 μM to 0.13 nM cAMP.
(§2) EC50 values were determined using Activity Base analysis (ID Business Solution, Limited). The EC50 values for a wide range of cannabinoid agonists generated from this assay were in agreement with the values published in the scientific literature.

human CB2 receptors = human CB2 receptors (Homo sapiens (Human), UniProt P34972); experiment: functional cAMP assay, CHO cells expressing human CB2 receptors; format: cell-based
Chain of human CB2 receptors (P34972 whole entry): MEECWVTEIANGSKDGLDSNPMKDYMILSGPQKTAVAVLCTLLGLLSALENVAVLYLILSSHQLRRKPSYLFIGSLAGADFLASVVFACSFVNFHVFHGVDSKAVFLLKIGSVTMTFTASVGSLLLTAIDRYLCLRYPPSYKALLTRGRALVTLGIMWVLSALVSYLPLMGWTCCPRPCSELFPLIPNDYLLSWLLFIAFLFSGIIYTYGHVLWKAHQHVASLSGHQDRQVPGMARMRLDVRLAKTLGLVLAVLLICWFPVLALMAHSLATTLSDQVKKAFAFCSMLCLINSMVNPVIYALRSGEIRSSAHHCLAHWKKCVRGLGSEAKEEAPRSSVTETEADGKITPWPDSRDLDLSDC
Description: as §1, §2

Chain of human CB1 receptors (P21554 whole entry): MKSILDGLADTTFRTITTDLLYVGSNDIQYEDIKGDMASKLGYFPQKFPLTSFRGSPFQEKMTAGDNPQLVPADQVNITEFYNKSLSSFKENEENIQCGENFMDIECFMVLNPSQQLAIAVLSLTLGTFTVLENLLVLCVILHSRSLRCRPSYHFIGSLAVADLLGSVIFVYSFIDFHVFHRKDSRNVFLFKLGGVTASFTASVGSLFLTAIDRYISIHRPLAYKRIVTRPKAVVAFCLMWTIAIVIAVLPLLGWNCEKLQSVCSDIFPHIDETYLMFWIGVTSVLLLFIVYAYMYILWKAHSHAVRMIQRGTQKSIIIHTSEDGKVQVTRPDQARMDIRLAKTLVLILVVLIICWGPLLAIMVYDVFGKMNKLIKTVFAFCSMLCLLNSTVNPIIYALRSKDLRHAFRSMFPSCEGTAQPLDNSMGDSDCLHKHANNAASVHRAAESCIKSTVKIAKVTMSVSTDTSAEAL

| Compound | EC50 (human CB1 receptors) [nM] | EC50 (human CB2 receptors) [nM] |
| --- | --- | --- |
| NC(=O)[C@@H]1N(C(=O)c2ccc(N3CC(F)(F)C3)c(OCC3CC3)n2)CCC12CC2 [Example 151, (−)-5-[6-(Cyclopropylmethoxy)-5-(3,3-difluoroazetidin-1-yl)pyridine-2-carbonyl]-5-azaspiro[2.4]heptane-4-carboxamide] | > 10000 | 818 |
| O=C(O)C1C2CN(C(=O)c3ccc(N4CC(F)(F)C4)c(OCC4CC4)n3)CC21 (stereo not shown) [Example 110, 3-[6-Cyclopropylmethoxy-5-(3,3-difluoro-azetidin-1-yl)-pyridine-2-carbonyl]-3-aza-bicyclo[3.1.0]hexane-6-carboxylic acid] | > 10000 | 386 |
| CC(C)(C)OC(=O)N1CCC2(CCCN2C(=O)c2ccc(N3CC(F)(F)C3)c(OCC3CC3)n2)CC1 [Example 74, 1-[6-Cyclopropylmethoxy-5-(3,3-difluoro-azetidin-1-yl)-pyridine-2-carbonyl]-1,8-diaza-spiro[4.5]decane-8-carboxylic acid tert-butyl ester] | > 10000 | 11.5 |
| O=C(c1ccc(N2CC(F)(F)C2)c(OCC2CC2)n1)N(Cc1ccccc1)C1(C(F)(F)F)CC1 [Example 22, 6-Cyclopropylmethoxy-5-(3,3-difluoro-azetidin-1-yl)-pyridine-2-carboxylic acid benzyl-(1-trifluoromethyl-cyclopropyl)-amide] | > 10000 | 25 |
| NC(=O)[C@@H]1C[C@H](O)CN1C(=O)c1ccc(N2CC(F)(F)C2)c(OCC2CC2)n1 [Example 79, (2S,4S)-1-[6-Cyclopropylmethoxy-5-(3,3-difluoro-azetidin-1-yl)-pyridine-2-carbonyl]-4-hydroxy-pyrrolidine-2-carboxylic acid amide] | > 10000 | 519 |
| CN(C)C(=O)CN(C(=O)c1ccc(N2CC(F)(F)C2)c(OCC2CC2)n1)C(C)(C)C [Example 27, 6-Cyclopropylmethoxy-5-(3,3-difluoro-azetidin-1-yl)-pyridine-2-carboxylic acid tert-butyl-dimethylcarbamoylmethyl-amide] | > 10000 | 774 |
| NC(=O)[C@H]1CC(F)(F)CN1C(=O)c1ccc(C2CC2)c(OCC(F)(F)C(F)(F)F)n1 [Example 87, (R)-1-[5-Cyclopropyl-6-(2,2,3,3,3-pentafluoro-propoxy)-pyridine-2-carbonyl]-4,4-difluoro-pyrrolidine-2-carboxylic acid amide] | > 10000 | 768 |
| O=C(c1ccc(N2CC(F)(F)C2)c(OCC2CC2)n1)N1C[C@@H]2C[C@H]1CS2 [Example 62, [6-Cyclopropylmethoxy-5-(3,3-difluoro-azetidin-1-yl)-pyridin-2-yl]-(1S,4S)-2-thia-5-aza-bicyclo[2.2.1]hept-5-yl-methanone] | > 10000 | 9.1 |
| CNC(=O)CN(C(=O)c1ccc(N2CC(F)(F)C2)c(OCC2CC2)n1)C(C)(C)C [Example 26, 6-Cyclopropylmethoxy-5-(3,3-difluoro-azetidin-1-yl)-pyridine-2-carboxylic acid tert-butyl-methylcarbamoylmethyl-amide] | > 10000 | 306 |
| CC(=O)N1CCC(N(C(=O)c2ccc(N3CC(F)(F)C3)c(OCC3CC3)n2)C2CC2)CC1 [Example 50, 6-Cyclopropylmethoxy-5-(3,3-difluoro-azetidin-1-yl)-pyridine-2-carboxylic acid (1-acetyl-piperidin-4-yl)-cyclopropyl-amide] | > 10000 | 237 |
| CCN(CCOC)C(=O)c1ccc(N2CC(F)(F)C2)c(OCC2CC2)n1 [Example 39, 6-Cyclopropylmethoxy-5-(3,3-difluoro-azetidin-1-yl)-pyridine-2-carboxylic acid ethyl-(2-methoxy-ethyl)-amide] | > 10000 | 142 |
| CC1(F)CN(C(=O)c2ccc(N3CC(F)(F)C3)c(OCC3CC3)n2)C1 [Example 149, [6-(Cyclopropylmethoxy)-5-(3,3-difluoroazetidin-1-yl)-2-pyridyl]-(3-fluoro-3-methyl-azetidin-1-yl)methanone] | > 10000 | 79 |
| NC(=O)[C@@H]1CC(F)(F)CN1C(=O)c1ccc(C2(F)COC2)c(OCC2CC2)n1 [Example 134, (2S)-1-[6-(Cyclopropylmethoxy)-5-(3-fluorooxetan-3-yl)pyridine-2-carbonyl]-4,4-difluoropyrrolidine-2-carboxamide] | > 10000 | 52.2 |
| NC(=O)[C@@H]1CC(F)(F)CN1C(=O)c1ccc(C2(F)CCC2)c(OCC2CC2)n1 [Example 130, (2S)-1-[6-(Cyclopropylmethoxy)-5-(1-fluorocyclobutyl)pyridine-2-carbonyl]-4,4-difluoropyrrolidine-2-carboxamide] | > 10000 | 2.3 |
| CC1C(c2ccccc2)CCCN1C(=O)c1ccc(N2CC(F)(F)C2)c(OCC2CC2)n1 (stereo not shown) [Example 64, [6-Cyclopropylmethoxy-5-(3,3-difluoro-azetidin-1-yl)-pyridin-2-yl]-(2-methyl-3-phenyl-piperidin-1-yl)-methanone] | > 10000 | 40.5 |
| O=C(c1ccc(C2CC2)c(OCC2CC2)n1)N1CCC(O)(C(F)(F)F)C1 (stereo not shown) [Example 143, [5-Cyclopropyl-6-(cyclopropylmethoxy)pyridin-2-yl]-[3-hydroxy-3-(trifluoromethyl)pyrrolidin-1-yl]methanone] | > 10000 | 87.8 |
| O=C(c1ccc(N2CC(F)(F)C2)c(OCC2CC2)n1)N1CC2(C1)CS(=O)(=O)C2 [Example 71, [6-Cyclopropylmethoxy-5-(3,3-difluoro-azetidin-1-yl)-pyridin-2-yl]-(2,2-dioxo-2λ6-thia-6-aza-spiro[3.3]hept-6-yl)-methanone] | > 10000 | 444 |
| CCC1(CC)C(=O)NCCN1C(=O)c1ccc(N2CC(F)(F)C2)c(OCC2CC2)n1 [Example 29, 4-[6-Cyclopropylmethoxy-5-(3,3-difluoro-azetidin-1-yl)-pyridine-2-carbonyl]-3,3-diethyl-piperazin-2-one] | > 10000 | 414 |
| NC(=O)[C@@H]1CC(F)(F)CN1C(=O)c1ccc(C2(O)CCC2)c(OCC2CC2)n1 [Example 129, (2S)-1-[6-(Cyclopropylmethoxy)-5-(1-hydroxycyclobutyl)pyridine-2-carbonyl]-4,4-difluoropyrrolidine-2-carboxamide] | > 10000 | 75.8 |
| O=C(c1ccc(N2CC(F)(F)C2)c(OCC2CC2)n1)N1CC(F)(F)C1 [Example 102, [6-Cyclopropylmethoxy-5-(3,3-difluoro-azetidin-1-yl)-pyridin-2-yl]-(3,3-difluoro-azetidin-1-yl)-methanone] | > 10000 | 181 |
| O=C(c1ccc(N2CC(F)(F)C2)c(OCC2CC2)n1)N1CC2(CC(O)CO2)C1 (stereo not shown) [Example 83, [6-Cyclopropylmethoxy-5-(3,3-difluoro-azetidin-1-yl)-pyridin-2-yl]-(7-hydroxy-5-oxa-2-aza-spiro[3.4]oct-2-yl)-methanone] | > 10000 | 760 |
| O=C(c1ccc(N2CC(F)(F)C2)c(OCC2CC2)n1)N1CCC2(CC2)C1 [Example 104, (5-Aza-spiro[2.4]hept-5-yl)-[6-cyclopropylmethoxy-5-(3,3-difluoro-azetidin-1-yl)-pyridin-2-yl]-methanone] | > 10000 | 7.4 |
| CC1(C)COCN1C(=O)c1ccc(C2CC2)c(Cc2ccc(F)cc2)n1 [Example 44, [5-Cyclopropyl-6-(4-fluoro-benzyl)-pyridin-2-yl]-(4,4-dimethyl-oxazolidin-3-yl)-methanone] | 408 | 3.1 |
| CC(=O)NC1CCN(C(=O)c2ccc(N3CC(F)(F)C3)c(OCC3CC3)n2)C1 (stereo not shown) [Example 41, N-{1-[6-Cyclopropylmethoxy-5-(3,3-difluoro-azetidin-1-yl)-pyridine-2-carbonyl]-pyrrolidin-3-yl}-acetamide] | > 10000 | 966 |
| O=C(c1ccc(N2CC(F)(F)C2)c(OCC2CC2)n1)N1CCCC12CCC2 [Example 101, (5-Aza-spiro[3.4]oct-5-yl)-[6-cyclopropylmethoxy-5-(3,3-difluoro-azetidin-1-yl)-pyridin-2-yl]-methanone] | > 10000 | 4.9 |
| NC(=O)[C@@H]1CC(F)(F)CN1C(=O)c1ccc(C2CC2)c(Cc2ccc(F)cc2)n1 [Example 76, (S)-1-[5-Cyclopropyl-6-(4-fluoro-benzyl)-pyridine-2-carbonyl]-4,4-difluoro-pyrrolidine-2-carboxylic acid amide] | 167 | 0.2 |
